Here are results for one molecule from paper PMC10176470, “Engaging a Non-catalytic Cysteine Residue Drives Potent and Selective Inhibition of Caspase-6” (Journal of the American Chemical Society, 2023).

Holding throughout (format): cell-based
In experiment [1] the target is T1, proteins of HEK293T cells transiently overexpressing caspase-6 (Homo sapiens, UniProt Q96RQ3).
T1 sequence (Q96RQ3 42-725): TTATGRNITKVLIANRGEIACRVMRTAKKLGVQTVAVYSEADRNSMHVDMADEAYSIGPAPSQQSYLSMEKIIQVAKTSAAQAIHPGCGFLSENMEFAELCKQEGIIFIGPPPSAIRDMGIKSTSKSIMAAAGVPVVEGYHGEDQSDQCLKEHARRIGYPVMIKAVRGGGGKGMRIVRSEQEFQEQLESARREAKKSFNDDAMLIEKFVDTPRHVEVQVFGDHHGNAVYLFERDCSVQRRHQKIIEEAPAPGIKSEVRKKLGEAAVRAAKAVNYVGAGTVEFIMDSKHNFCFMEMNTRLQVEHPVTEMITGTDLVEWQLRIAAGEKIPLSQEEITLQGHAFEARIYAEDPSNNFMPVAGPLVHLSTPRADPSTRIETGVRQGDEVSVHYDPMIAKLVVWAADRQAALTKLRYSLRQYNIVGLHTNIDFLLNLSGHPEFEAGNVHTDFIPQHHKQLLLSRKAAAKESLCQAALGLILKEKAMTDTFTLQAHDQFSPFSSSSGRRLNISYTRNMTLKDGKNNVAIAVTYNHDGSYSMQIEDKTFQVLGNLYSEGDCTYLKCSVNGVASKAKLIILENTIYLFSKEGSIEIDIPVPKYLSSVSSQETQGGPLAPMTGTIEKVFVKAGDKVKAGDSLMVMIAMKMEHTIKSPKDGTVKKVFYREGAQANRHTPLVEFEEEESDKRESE

For experiment [2], the target named is proteins of HEK293T cells transiently overexpressing caspase-6 (Homo sapiens, UniProt P13645). The settings on record: Probe; protein KRT10 P13645.
proteins of HEK293T cells transiently overexpressing caspase-6 (Homo sapiens, UniProt P13645), sequence (P13645 whole entry): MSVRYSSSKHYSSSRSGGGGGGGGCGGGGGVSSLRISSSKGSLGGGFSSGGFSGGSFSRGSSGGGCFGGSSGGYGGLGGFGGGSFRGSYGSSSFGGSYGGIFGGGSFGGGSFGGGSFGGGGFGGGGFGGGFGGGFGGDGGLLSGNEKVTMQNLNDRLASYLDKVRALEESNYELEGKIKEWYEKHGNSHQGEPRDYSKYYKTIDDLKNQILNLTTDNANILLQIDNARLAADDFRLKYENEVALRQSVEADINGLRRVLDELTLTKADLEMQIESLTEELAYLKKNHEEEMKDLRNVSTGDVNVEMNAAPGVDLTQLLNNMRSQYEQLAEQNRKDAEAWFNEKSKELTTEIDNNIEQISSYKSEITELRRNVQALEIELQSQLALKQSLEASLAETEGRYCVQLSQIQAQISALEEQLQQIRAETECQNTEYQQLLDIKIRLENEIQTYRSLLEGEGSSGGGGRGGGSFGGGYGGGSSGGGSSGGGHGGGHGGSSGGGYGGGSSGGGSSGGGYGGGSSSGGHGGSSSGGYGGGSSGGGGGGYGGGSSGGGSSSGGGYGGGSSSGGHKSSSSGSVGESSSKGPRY
The target of experiment [3] is T2, proteins of HEK293T cells transiently overexpressing caspase-6 (Homo sapiens, UniProt P09936).
T2 sequence (P09936 1-223): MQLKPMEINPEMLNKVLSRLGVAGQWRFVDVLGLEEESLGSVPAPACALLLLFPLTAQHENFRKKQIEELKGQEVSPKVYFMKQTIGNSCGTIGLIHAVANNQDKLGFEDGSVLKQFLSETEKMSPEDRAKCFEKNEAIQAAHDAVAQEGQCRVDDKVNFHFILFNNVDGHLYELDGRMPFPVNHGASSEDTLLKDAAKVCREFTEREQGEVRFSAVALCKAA
Particulars: protein UCHL1 (P09936).

Experiment [4] concerns the target proteins of HEK293T cells transiently overexpressing caspase-6 (Homo sapiens, UniProt Q96AG4). Particulars: protein LRRC59 (Q96AG4); exp_ref Probe; analysis C6.
Experiment [5] deals with proteins of HEK293T cells transiently overexpressing caspase-6 (Homo sapiens, UniProt P09651). The settings on record: protein HNRNPA1 (P09651).
proteins of HEK293T cells transiently overexpressing caspase-6 (Homo sapiens, UniProt P09651), sequence (P09651 whole entry): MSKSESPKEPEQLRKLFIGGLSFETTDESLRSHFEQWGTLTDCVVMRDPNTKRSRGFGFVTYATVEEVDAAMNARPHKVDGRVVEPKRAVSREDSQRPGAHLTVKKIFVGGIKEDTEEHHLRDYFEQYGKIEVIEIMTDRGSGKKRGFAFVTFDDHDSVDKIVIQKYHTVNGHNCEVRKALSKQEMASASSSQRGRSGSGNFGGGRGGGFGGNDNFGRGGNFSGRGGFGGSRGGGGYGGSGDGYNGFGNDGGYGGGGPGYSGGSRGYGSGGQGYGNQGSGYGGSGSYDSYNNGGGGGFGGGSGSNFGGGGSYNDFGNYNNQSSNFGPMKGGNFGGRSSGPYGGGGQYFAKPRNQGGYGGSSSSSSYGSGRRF
Experiment [6] deals with proteins of HEK293T cells transiently overexpressing caspase-6 (Homo sapiens, UniProt O00541). The settings on record: protein PES1 (O00541); exp_ref Probe; analysis C6.
proteins of HEK293T cells transiently overexpressing caspase-6 (Homo sapiens, UniProt O00541), sequence (O00541 whole entry, looked up): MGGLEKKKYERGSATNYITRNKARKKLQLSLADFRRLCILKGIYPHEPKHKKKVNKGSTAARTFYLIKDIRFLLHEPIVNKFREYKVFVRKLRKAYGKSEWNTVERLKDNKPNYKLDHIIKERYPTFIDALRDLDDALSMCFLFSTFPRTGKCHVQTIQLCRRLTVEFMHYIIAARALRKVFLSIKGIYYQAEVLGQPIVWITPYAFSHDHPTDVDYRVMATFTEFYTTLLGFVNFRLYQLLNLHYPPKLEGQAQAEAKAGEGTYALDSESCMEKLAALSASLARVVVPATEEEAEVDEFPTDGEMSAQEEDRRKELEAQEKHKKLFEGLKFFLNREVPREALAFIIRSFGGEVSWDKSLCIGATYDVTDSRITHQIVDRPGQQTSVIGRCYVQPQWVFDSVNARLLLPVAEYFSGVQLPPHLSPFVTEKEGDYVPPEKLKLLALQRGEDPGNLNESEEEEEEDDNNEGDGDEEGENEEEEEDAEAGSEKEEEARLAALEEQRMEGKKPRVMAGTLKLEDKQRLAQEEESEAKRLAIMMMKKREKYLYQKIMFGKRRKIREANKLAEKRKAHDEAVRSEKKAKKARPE
Experiment [7] deals with proteins of HEK293T cells transiently overexpressing caspase-6 (Homo sapiens, UniProt Q15233). Particulars: exp_ref Probe; protein NONO (Q15233); analysis C6.
proteins of HEK293T cells transiently overexpressing caspase-6 (Homo sapiens, UniProt Q15233), sequence (Q15233 whole entry): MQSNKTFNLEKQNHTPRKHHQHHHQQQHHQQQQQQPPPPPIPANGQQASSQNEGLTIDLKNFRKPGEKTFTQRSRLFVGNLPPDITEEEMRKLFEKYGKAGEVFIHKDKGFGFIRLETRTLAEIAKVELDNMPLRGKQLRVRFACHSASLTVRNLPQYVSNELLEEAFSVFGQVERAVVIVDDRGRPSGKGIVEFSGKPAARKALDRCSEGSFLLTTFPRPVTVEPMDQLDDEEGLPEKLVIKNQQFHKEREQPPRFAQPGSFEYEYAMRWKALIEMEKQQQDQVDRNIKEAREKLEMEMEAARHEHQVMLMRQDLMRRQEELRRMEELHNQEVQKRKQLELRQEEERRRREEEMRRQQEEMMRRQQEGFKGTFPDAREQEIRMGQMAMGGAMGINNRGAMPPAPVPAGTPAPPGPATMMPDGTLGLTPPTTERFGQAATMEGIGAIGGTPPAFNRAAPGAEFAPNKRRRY
Experiment [8] concerns the target proteins of HEK293T cells transiently overexpressing caspase-6 (Homo sapiens, UniProt Q9BT22). Particulars: exp_ref Probe; protein ALG1 (Q9BT22); analysis C6.
Experiment [9] concerns the target T3, proteins of HEK293T cells transiently overexpressing caspase-6 (Homo sapiens, UniProt P14324).
T3 sequence (P14324 1-419): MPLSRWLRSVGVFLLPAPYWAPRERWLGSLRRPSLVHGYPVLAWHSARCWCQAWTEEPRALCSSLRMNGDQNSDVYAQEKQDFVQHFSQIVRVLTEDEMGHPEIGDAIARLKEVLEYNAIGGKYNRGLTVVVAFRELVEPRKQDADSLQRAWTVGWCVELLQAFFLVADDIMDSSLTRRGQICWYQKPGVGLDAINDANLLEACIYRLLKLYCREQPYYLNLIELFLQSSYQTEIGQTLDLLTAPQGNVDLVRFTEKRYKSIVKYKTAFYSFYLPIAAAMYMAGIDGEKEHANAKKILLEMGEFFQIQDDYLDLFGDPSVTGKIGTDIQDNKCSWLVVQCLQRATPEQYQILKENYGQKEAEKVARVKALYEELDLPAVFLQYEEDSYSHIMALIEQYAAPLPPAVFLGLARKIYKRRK
The settings on record: Probe; protein FDPS P14324.

Experiment [10] deals with proteins of HEK293T cells transiently overexpressing caspase-6 (Homo sapiens, UniProt P49368). Particulars: exp_ref Probe; protein CCT3 (P49368); analysis C6.
proteins of HEK293T cells transiently overexpressing caspase-6 (Homo sapiens, UniProt P49368), sequence (P49368 whole entry): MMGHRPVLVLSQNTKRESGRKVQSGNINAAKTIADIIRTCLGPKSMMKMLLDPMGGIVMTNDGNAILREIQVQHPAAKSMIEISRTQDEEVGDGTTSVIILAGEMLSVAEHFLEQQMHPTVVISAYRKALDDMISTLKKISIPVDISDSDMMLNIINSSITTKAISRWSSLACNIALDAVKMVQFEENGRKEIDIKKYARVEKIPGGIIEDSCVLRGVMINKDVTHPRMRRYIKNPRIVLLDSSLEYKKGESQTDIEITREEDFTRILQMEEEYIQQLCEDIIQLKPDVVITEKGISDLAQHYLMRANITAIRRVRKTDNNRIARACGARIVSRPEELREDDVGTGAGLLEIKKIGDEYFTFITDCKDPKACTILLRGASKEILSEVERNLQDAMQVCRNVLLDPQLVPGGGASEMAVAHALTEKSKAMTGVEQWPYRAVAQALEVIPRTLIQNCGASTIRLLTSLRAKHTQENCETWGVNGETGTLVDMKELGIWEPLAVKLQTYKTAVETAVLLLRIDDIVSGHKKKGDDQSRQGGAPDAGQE

proteins of HEK293T cells transiently overexpressing caspase-6 (Homo sapiens, UniProt Q96AG4), sequence (Q96AG4 whole entry): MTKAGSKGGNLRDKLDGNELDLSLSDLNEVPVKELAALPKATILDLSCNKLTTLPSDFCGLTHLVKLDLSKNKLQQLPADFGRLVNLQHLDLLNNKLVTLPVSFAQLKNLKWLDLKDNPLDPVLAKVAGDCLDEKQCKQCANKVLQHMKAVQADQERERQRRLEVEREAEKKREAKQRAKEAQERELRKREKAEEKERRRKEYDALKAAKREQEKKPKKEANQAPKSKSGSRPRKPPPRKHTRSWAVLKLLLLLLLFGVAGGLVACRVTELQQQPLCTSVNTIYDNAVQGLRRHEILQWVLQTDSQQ
proteins of HEK293T cells transiently overexpressing caspase-6 (Homo sapiens, UniProt Q9BT22), sequence (Q9BT22 whole entry): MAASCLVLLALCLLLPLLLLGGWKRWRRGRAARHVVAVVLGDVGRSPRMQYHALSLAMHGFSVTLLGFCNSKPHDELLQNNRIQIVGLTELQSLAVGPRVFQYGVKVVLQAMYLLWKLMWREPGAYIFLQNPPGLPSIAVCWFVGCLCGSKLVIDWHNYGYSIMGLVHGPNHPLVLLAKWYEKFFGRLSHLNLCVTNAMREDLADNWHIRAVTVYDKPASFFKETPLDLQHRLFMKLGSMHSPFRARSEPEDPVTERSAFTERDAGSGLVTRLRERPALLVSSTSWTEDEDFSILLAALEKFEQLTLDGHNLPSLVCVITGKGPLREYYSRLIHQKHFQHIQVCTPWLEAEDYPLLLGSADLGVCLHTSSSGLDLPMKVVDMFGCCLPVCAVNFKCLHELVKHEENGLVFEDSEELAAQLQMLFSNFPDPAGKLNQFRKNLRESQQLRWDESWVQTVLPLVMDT

`C#CCOc1ccc([C@@H]2C[C@@H](C(=O)Nc3ccc(OC(F)(F)F)cc3)CN(S(=O)(=O)C=C)C2)cc1` (relative stereo) [13-t]: the enrich.exp.med in [1] (Probe, protein MCCC1 Q96RQ3) is -2.028; in experiment [2], -7.844; in experiment [3] (exp_ref Probe, analysis C6), 1.788; in experiment [4], 2.108; in [5] (exp_ref Probe, analysis C6), 0.3216; in experiment [6], 1.47. The enrich.exp.med in [7] is 0.7906; in experiment [8], 0.4836; in [9], -1.278; in experiment [10], 0.6394. Besides, the enrich.exp.med.lin in experiment [1] (protein MCCC1 (Q96RQ3)) is given as 0.2451; in experiment [3] it was 3.454; in experiment [5], 1.2497. Further, the values for the enrich.exp.med.log2 in experiment [1] (protein MCCC1 (Q96RQ3)), in experiment [3] and in experiment [5] were -2.028, 1.788 and 0.3216, respectively.
